“And” between values parts separate entries of the source, which are not always exact repeats. Identical values can stand only once.

In the experiment the target is Chromo domain-containing protein 1 (Saccharomyces cerevisiae (strain ATCC 204508 / S288c) (Baker's yeast), UniProt P32657). The experiment is described as follows: ScCHD-1 Enzyme Inhibition Assay. It counts as functional.
Sequence of Chromo domain-containing protein 1 (P32657 whole entry, the tested form may be a part): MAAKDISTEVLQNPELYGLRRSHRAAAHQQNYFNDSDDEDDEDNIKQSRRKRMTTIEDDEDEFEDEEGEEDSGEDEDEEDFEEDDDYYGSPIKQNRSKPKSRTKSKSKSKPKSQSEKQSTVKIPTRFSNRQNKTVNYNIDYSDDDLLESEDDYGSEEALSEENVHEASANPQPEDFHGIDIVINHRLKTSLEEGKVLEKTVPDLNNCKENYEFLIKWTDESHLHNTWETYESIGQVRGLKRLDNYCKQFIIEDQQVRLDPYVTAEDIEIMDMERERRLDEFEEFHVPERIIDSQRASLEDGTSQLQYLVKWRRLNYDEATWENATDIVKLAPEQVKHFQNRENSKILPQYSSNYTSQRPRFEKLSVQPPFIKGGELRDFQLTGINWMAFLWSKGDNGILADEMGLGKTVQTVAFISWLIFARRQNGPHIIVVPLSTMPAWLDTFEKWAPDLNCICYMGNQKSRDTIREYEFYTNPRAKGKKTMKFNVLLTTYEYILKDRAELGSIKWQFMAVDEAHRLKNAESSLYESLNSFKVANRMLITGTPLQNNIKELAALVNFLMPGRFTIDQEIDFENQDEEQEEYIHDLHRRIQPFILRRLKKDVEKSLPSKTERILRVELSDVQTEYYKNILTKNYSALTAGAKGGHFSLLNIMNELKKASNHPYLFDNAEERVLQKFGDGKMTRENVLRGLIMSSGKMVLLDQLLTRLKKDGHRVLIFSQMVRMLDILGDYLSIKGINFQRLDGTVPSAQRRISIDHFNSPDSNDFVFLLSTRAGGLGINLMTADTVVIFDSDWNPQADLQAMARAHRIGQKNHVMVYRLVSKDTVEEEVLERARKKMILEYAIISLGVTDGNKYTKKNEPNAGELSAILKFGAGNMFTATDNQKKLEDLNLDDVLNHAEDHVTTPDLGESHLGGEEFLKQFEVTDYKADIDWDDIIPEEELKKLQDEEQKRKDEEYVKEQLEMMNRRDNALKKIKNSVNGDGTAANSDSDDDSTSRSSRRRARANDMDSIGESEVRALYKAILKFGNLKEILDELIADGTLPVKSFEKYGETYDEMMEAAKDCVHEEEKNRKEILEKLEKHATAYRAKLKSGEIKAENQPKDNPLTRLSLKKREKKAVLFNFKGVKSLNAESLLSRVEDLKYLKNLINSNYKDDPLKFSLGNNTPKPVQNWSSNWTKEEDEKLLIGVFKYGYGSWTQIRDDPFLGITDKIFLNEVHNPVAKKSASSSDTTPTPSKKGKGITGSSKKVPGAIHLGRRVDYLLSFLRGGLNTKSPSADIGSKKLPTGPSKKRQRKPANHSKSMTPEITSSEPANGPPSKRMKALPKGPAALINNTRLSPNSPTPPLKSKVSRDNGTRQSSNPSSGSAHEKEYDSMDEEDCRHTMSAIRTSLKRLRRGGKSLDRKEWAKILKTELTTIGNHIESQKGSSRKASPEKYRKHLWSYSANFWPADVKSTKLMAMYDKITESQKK

The IC50 is the midpoint of a concentration-inhibition curve. A higher IC50 goes with weaker potency. In turn, `Cc1ccc(C(=O)NCCCN2CCOCC2)c(Cl)c1` had an IC50 greater than 29.5 µM. Take `CC(=O)NCCC(=O)NCc1cccnc1-n1cnc2ccccc21`: the IC50 was greater than 29.5 µM. `O=C(Cn1c(=O)nc2n1C(=O)N(c1ccccc1)C2)Nc1ccccc1`: the concentration for half-maximal inhibition (IC50) was greater than 29.5 µM.

`CC(C)(C)n1ncc2c1NC(=O)CC2c1ccccc1` (stereo not given) had an IC50 greater than 29.5 µM. The value for `O=C1CSC(c2ccsc2)c2sccc2N1` (stereo not given) was greater than 29.5 µM. `CN1CCN(c2ncc3c(=O)n(-c4cccc(F)c4)c(=O)[nH]c3n2)CC1` gave an IC50 greater than 29.5 µM. For `CCc1ccc(-n2c(=O)[nH]c3nc(N4CCSCC4)ncc3c2=O)cc1`, the IC50 is greater than 29.5 µM. In the case of `O=C(O)c1nnn(-c2ccc(OC(F)(F)F)cc2)c1-c1ccncc1` it was greater than 29.5 µM; in that of `O=C(COc1coc(CN2CCCCCC2)cc1=O)c1ccccc1`, greater than 29.5 µM. The molecule `CC(=O)c1cccc(NC(=O)Cn2cc(I)cn2)c1` showed an IC50 greater than 29.5 µM. As to `O=C(NCc1ccco1)[C@H]1C[C@H]2OCC[C@H]2N(C(=O)c2ccco2)C1`, the IC50 is greater than 29.5 µM. For the molecule `CCc1ccc(NC(=O)N2C[C@H]3C[C@H](C(=O)NC)[C@@H](C2)O3)cc1`, the IC50 was greater than 29.5 µM. In the case of `Cn1ccnc1CN1CCC2(CC1)CN(CC1CC1)C(=O)CO2` it was greater than 29.5 µM; in that of `COCCNC(=O)C(C)n1cc(Br)cn1` (stereo not given), greater than 29.5 µM. In the case of `CCn1nccc1CNC(=O)C1CC1` it was greater than 29.5 µM; in that of `NCC1(c2cccc(C(F)(F)F)c2)CCOCC1`, greater than 29.5 µM. The value for `CCNC(=O)N(C)Cc1ccc(SC)c(OC)c1` was greater than 29.5 µM. `N#Cc1cn(CC(=O)NC2CC2)c2ccc(Br)cc2c1=O` had an IC50 greater than 29.5 µM.

Consider `Cc1cc(NC(=O)Cn2cc(C#N)c(=O)c3cc(Br)ccc32)no1`, for which the concentration for half-maximal inhibition (IC50) is > 29.5 µM and 25.6 µM.

For `Cc1cnn(C2CN(CC(O)c3ccc(F)cc3)C2)c1` (stereo not given), the half-inhibitory concentration (IC50) is greater than 29.5 µM. In the case of `FC(F)(F)COCCN1CCCC(c2noc(C3CC3)n2)C1` (stereo not given) it was greater than 29.5 µM; in that of `Cc1ccc(S(=O)(=O)NCCNC(=O)c2ccoc2)cc1F`, greater than 29.5 µM.

`O=C(NCC(F)(F)F)NC1CCCc2c1cnn2CCO` (stereo not given): the IC50 was greater than 29.5 µM.

Take `CSCc1nc(C(C)(C)NC(=O)OC(C)(C)C)no1`: the IC50 is greater than 29.5 µM. Molecule `CC(C)c1noc(CCC(=O)NC(C)c2nnc3n2CCCCC3)n1` (stereo not given) gave an IC50 greater than 29.5 µM. Molecule `CC(CNC(=O)c1ccc(Cl)cc1I)N1CCCC1` (stereo not given) gave an IC50 greater than 29.5 µM.

The molecule `Cc1cnn(CC2CCCN2CC(=O)N(C)CCC#N)c1` (stereo not given) gave a half-maximal inhibitory concentration (IC50) greater than 29.5 µM. The value for `COCCC(=O)N1CCc2cc(Cl)cc(Cl)c2C1` was greater than 29.5 µM; that for `CN(Cc1cccc(F)c1)C(=O)CN1CCCC1CCc1ccccc1` (stereo not given) was greater than 29.5 µM; that for `Cc1c(C(=O)NCC2CCCO2)nnn1-c1cccc2c1CCN(C)C2` (stereo not given) was greater than 29.5 µM. The molecule `COCCn1ccc(NC(=O)Nc2ccc(C(N)=O)c(F)c2)n1` showed a 50% inhibitory concentration (IC50) greater than 29.5 µM. `Cc1ccccc1C1CCCN1C(=O)CN1CC2(CCNCC2)OC1=O` (stereo not given): the IC50 is greater than 29.5 µM.

`CCNC(=O)CCN1CCC(c2cc(N3CCOCC3)nc(C)n2)CC1` gave an IC50 greater than 29.5 µM. In turn, `CCn1nc(CC(C)C)cc1C(=O)N1CC[C@@H](O)C1` showed a concentration for half-maximal inhibition (IC50) greater than 29.5 µM. In the case of `CCn1ncnc1C1CC(=O)NCc2nc3ccccn3c21` (stereo not given) it was greater than 29.5 µM; in that of `O=C(Cc1cccnc1)N1CCC(OCc2ccccc2)CC1`, greater than 29.5 µM; in that of `Cc1ncc(S(C)(=O)=O)c(C2CCCNC2)n1` (stereo not given), greater than 29.5 µM. The value for `COC[C@@]12CC[C@@H](N3CCOCC3)C[C@H]1CCN(c1ncccn1)C2` was greater than 29.5 µM; that for `CCNC(=O)[C@@H]1C[C@H](NC(=O)Cc2ccsc2)CN1Cc1ccc(C)o1` was greater than 29.5 µM. Consider `c1cnn(Cc2nnc(C3CCN(C4CCOCC4)CC3)n2C2CC2)c1`, for which the IC50 was greater than 29.5 µM. Turning to `O=C(CCc1c[nH]cn1)N1CC[C@@H](c2ccc3ccccc3c2)[C@H](O)C1`, the 50% inhibitory concentration (IC50) is greater than 29.5 µM. The value for `CCCN1CCCn2nc(CNS(=O)(=O)c3cccc(C#N)c3)cc2C1` was greater than 29.5 µM; that for `CS(=O)(=O)NCc1cc2n(n1)CCCN(Cc1cccc(C#N)c1)C2` was greater than 29.5 µM. For the molecule `COc1ccc(C(=O)C2CCCN(CCCn3cccn3)C2)c(OC)c1` (stereo not given), the concentration for half-maximal inhibition (IC50) is greater than 29.5 µM. In the case of `COc1ccc(C(=O)C2CCCN(Cc3ccncc3)C2)c(OC)c1` (stereo not given) it was greater than 29.5 µM; in that of `c1cn(Cc2nnc(C3CCN(c4nccs4)CC3)n2C2CC2)cn1`, greater than 29.5 µM; in that of `CN(C)Cc1ccc(C2CCCCN2C(=O)c2cccc(CO)n2)cc1` (stereo not given), greater than 29.5 µM.

The molecule `Cc1nc(N2CCN(C)CC2)ncc1C(=O)N1CC(C)(C)C(C)(O)C1` (stereo not given) showed an IC50 greater than 29.5 µM. `CCn1ccnc1CN1CCC(CCC(=O)Nc2ccccc2Cl)CC1` showed a concentration for half-maximal inhibition (IC50) greater than 29.5 µM. In turn, `Cc1nc(CN2CCCC(CCc3c(F)cccc3F)C2)c[nH]1` (stereo not given) showed a concentration for half-maximal inhibition (IC50) greater than 29.5 µM. The value for `COc1cccc2c1OCC(C(=O)NC1CCN(S(C)(=O)=O)CC1)C2` (stereo not given) was greater than 29.5 µM.

The molecule `Cc1nc(N)sc1C(=O)N1CCCC(c2nccn2CCCN(C)C)C1` (stereo not given) gave a half-maximal inhibitory concentration (IC50) greater than 29.5 µM. In the case of `CCc1c(C)nn(CCNC(=O)C2CCCN(C(=O)N(C)C)C2)c1C` (stereo not given) it was greater than 29.5 µM.

`COc1ccc(NC(=O)CCC2CCCN(Cc3ncon3)C2)cc1Cl` (stereo not given) had a 50% inhibitory concentration (IC50) greater than 29.5 µM.

As for `CCC(NC(=O)C1CCN(S(C)(=O)=O)CC1)c1ccc(OC)c(C)c1` (stereo not given), the 50% inhibitory concentration (IC50) is greater than 29.5 µM. Turning to `CN(C)Cc1nnc(C2CCN(C(=O)CCc3cccs3)CC2)n1C`, the half-maximal inhibitory concentration (IC50) is greater than 29.5 µM. In the case of `O=C1N(Cc2cccc(F)c2F)CCCC1(O)CNC1CCCC1` (stereo not given) it was greater than 29.5 µM; in that of `CN(C)CC1(O)CCN(S(=O)(=O)c2ccc(F)cc2)C1` (stereo not given), greater than 29.5 µM.

For `O=C(Cn1c(=O)n(Cc2ccco2)c2ncccc21)NC1CCCCC1`, the IC50 was greater than 29.5 µM.

Take `CN(C(=O)C1CCCCC1)[C@@H]1CCC[C@@H](N2CCOCC2)[C@@H]1O`: the IC50 was greater than 29.5 µM. `COCCN1CCN(CCCS(C)(=O)=O)CC1C` (stereo not given) had a half-inhibitory concentration (IC50) greater than 29.5 µM. In the case of `CCOCCN1CCN(Cc2cccc(C(=O)N(C)C)c2)CC1` it was greater than 29.5 µM; in that of `CCc1nc(C2CCCN(C(=O)c3cn(C)nc3C)C2)no1` (stereo not given), greater than 29.5 µM; in that of `COc1c(CNC2CCc3c(Cl)cccc32)c(C)nn1C` (stereo not given), greater than 29.5 µM. In the case of `O=C(NC1CC1)[C@H]1C[C@H]2OCC[C@H]2N(CC2CCOCC2)C1` it was greater than 29.5 µM; in that of `O=C(NC1CC1)[C@H]1CC[C@@H]2[C@@H](CCN2c2ncc(F)cn2)O1`, greater than 29.5 µM; in that of `CC(C)CN1C[C@H]2CCN(c3ncccn3)CC[C@H]2S1(=O)=O`, greater than 29.5 µM. Turning to `Cc1ccc(C(=O)N2CCn3cc(CN(C)Cc4ccco4)nc3C2)o1`, the IC50 was greater than 29.5 µM. As for `Cc1cccc(CN2CCC3(CCCN(C(=O)c4ccsc4)C3)C2=O)n1` (stereo not given), the IC50 is greater than 29.5 µM. Molecule `Cn1cnc2c1C(COCC1CC1)CN(C(=O)Cc1ccsc1)C2` (stereo not given) had a half-maximal inhibitory concentration (IC50) greater than 29.5 µM. Take `CC(C)COCc1cncc2c1CCN(Cc1cnn(C)c1)C2`: the 50% inhibitory concentration (IC50) was greater than 29.5 µM.

`Cc1cccc(CN2CC[C@@H]3[C@@H]2CCN3C(=O)c2ccno2)n1`: the IC50 was greater than 29.5 µM. The value for `Cc1cccc(CN2C[C@@H]3COC[C@]3(CNC(=O)c3ccsc3)C2)n1` was greater than 29.5 µM; that for `Cc1cccc(C(=O)N2C[C@@H](OCc3cccnc3)[C@H]3OCCC[C@@H]32)n1` was greater than 29.5 µM; that for `Cc1ccc(=O)n(CC2(O)CCN(Cc3cc(C)c(O)c(C)c3)CC2)n1` was greater than 29.5 µM.

For the origin of these results see ChEMBL document CHEMBL3988442, “University of Dundee, Small-Polar-MMV Screening Library” (2021).
